Assay results as given in patent US8987275B2, “Indazole compounds and their uses” (Dana-Farber Cancer Institute, Inc., priority 2010, dated 2015).

Columns and labels:
Type in all cases: cell-based
Tel-Alk = biological target: T1, Tel-Alk (Homo sapiens, UniProt Q9UM73); assay: IC50 of compounds against kinase target Tel-Alk (Table I)
T1 construct: TEL (ETV6); N-terminal fusion partner; human ETV6 would be P41212; the other entry of the earlier key: ETV6 (P41212, Transcription factor ETV6)
Experimental: (§1) All compounds are initially dissolved in DMSO to make 10 mM stock solutions, and then are serially diluted to obtain final concentrations for in vitro experiments.
(§2) All cell lines are cultured with 5% CO2 at 37° C. in RPMI (Mediatech, Inc., Herndon, Va.) with 10% fetal calf serum (FCS) and supplemented with 1% L-glutamine. Parental Ba/F3 cells are similarly cultured with 15% WEHI-conditioned medium as a source of IL-3. Transfected cell lines are cultured in media supplemented with 1 mg/ml G418.

EML4-Alk = biological target: T2, EML4-Alk (Homo sapiens, UniProt Q9UM73); assay: IC50 of compounds against kinase target EML4-Alk (Table I)
T2 construct: EML4 (N-terminal fusion partner); human EML4 would be Q9HC35; the other entry of the earlier key: EML4 (Q9HC35, Echinoderm microtubule-associated protein-like 4)
T2 sequence (Q9UM73 1058-1620 limits assumed): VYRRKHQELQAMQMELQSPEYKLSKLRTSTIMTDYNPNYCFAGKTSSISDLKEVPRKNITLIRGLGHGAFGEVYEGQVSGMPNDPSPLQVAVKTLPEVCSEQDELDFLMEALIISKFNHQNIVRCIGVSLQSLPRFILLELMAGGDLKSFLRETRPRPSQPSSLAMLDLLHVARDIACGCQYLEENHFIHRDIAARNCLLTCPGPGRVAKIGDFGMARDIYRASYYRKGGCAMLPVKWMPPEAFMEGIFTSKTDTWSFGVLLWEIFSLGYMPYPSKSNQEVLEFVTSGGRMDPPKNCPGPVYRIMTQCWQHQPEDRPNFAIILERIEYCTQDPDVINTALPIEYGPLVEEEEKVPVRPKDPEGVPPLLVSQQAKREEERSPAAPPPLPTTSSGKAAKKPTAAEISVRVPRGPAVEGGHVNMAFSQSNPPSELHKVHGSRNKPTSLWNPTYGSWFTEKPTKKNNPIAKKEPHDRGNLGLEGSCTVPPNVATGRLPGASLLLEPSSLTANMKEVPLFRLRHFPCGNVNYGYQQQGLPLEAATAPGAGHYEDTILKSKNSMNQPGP
Experimental: as §1, §2

Bcr-Abl = biological target: T3, Bcr-Abl (Homo sapiens, UniProt P00519); assay: IC50 of compounds against kinase target Bcr-Abl (Table I)
T3 construct: BCR (N-terminal fusion partner, p210 form, B2A2 junction); expressed in transfected cells; host or cells: Ba/F3.p210 (or 32D.p210) murine hematopoietic cells; the other entry of the earlier key: BCR (P11274, Breakpoint cluster region protein)
Experimental: as §1
(§3) Ba/F3.p210 cells are obtained by transfecting the IL-3-dependent marine hematopoietic Ba/F3 cell line with a pGD vector containing p210BCR-ABL (B2A2) cDNA (Daley and Baltimore, 1988; Sattler et al., 1996; Okuda et al., 1996). Murine hematopoietic 32D cells are transduced with retrovirus to express p210 Bcr-ABL (32D.p210 cells) (Matulonis et al., 1993); the 32D-T315I cell line is transfected by electroporation with the imatinib resistant BCR-ABL construct (pCI-neo Mammalian Expression Vector; Promega (#E1841) harboring the point mutation T315I (Weisberg et al., 2005). Ba/F3 cells are stably transfected by electroporation with imatinib-resistant BCR-ABL constructs (pCI-neo Mammalian Expression Vector; Promega (#E1841) harboring the point mutations T315I, F317L, F486S, and M351T; transfectants are selected for neomycin resistance and IL-3-independent growth (Weisberg et al., 2005). Ba/F3 cells are stably transfected by electroporation with BCR-ABL point mutants identified in a random mutagenesis screen for BCR-ABL point mutants conferring resistance to nilotinib: Q252H, E292K, Y253C, Y253H, E255K, and V289L (Ray et al., 2007). Ba/F3 cells are made to express Tel-PDGFRβ as described by Golub et al., 1994, and Carroll et al., 1996. Constructs of D842V-PDGFRα and V561D-PDGFRα cDNA cloned into pcDNA3.1 are stably transfected into Ba/F3 cells by electroporation, and cells are selected for neomycin resistance and IL3-independent growth as described by Weisberg et al., 2006.
as §2

BCR-Abl T315I = biological target: T4, BCR-Abl T315I (Homo sapiens, UniProt P00519, T315I); assay: IC50 of compounds against kinase target T315I (Table I); conditions: read-out: IC50 T3151
T4 construct: BCR (N-terminal fusion partner of BCR-ABL); human BCR would be P11274; expressed in transfected cells; host or cells: Ba/F3 (or 32D) murine hematopoietic cells transfected with BCR-ABL T315I in pCI-neo; the other entry of the earlier key: BCR (P11274, Breakpoint cluster region protein)
Experimental: as §1, §3, §2

T1 sequence (Q9UM73 1116-1392 limits assumed): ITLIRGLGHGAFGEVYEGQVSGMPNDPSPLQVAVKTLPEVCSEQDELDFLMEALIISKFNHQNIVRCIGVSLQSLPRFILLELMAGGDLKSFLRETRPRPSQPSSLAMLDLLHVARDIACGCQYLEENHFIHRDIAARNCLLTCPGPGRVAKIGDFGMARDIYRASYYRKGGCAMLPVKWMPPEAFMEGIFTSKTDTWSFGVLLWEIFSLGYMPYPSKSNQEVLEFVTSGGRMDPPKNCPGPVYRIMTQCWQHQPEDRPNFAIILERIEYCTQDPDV

| IC50 (Tel-Alk) | IC50 (EML4-Alk) | IC50 (Bcr-Abl) | IC50 (BCR-Abl T315I) | SMILES |
| --- | --- | --- | --- | --- |
| > 10 µM | > 10 µM | > 10 µM | – | O=C(Nc1cccc(C(F)(F)F)c1)c1cccc(-c2ccc3c(NC(=O)C4CC4)n[nH]c3c2)c1 [Compound 1] |
| 4.48 µM | 4.19 µM | 0.05 µM | 0.63 µM | CCN1CCN(Cc2ccc(NC(=O)c3cccc(-c4ccc5c(NC)n[nH]c5c4)c3)cc2C(F)(F)F)CC1 [Compound 2, N-(4-((4-ethylpiperazin-1-yl)methyl)-3-(trifluoromethyl)phenyl)-3-(3-(methylamino)-1H-indazol-6-yl)benzamide] |
| 1.07 µM | 1.67 µM | 0.47 µM | – | CCN1CCN(Cc2ccc(NC(=O)c3cccc(-c4ccc5c(NC(=O)c6ccccc6)n[nH]c5c4)c3)cc2C(F)(F)F)CC1 [Compound 3] |
| 2.9 µM | 1.34 µM | 3.07 µM | 0.31 µM | Cc1cn(-c2cc(NC(=O)c3cccc(-c4ccc5c(NC(=O)C6CC6)n[nH]c5c4)c3)cc(C(F)(F)F)c2)cn1 [Compound 6] |
| > 10 µM | > 10 µM | > 10 µM | > 10 µM | O=C(NCCN1CCOCC1)c1cccc(-c2ccc3c(NC(=O)C4CC4)n[nH]c3c2)c1 [Compound 7] |
| > 10 µM | > 10 µM | > 10 µM | > 10 µM | O=C(Nc1n[nH]c2cc(-c3cccc(C(=O)N4CCC(N5CCCC5)CC4)c3)ccc12)C1CC1 [Compound 8] |
| > 10 µM | > 10 µM | > 10 µM | > 10 µM | CCN1CCN(Cc2ccc(NC(=O)c3cccc(-c4ccc5c(NC(=O)C6CC6)n[nH]c5c4)c3)cc2)CC1 [Compound 9] |
| > 10 µM | > 10 µM | > 10 µM | > 10 µM | O=C(NC1CC1)c1cccc(-c2ccc3c(NC(=O)C4CC4)n[nH]c3c2)c1 [Compound 10] |
| > 10 µM | > 10 µM | > 10 µM | > 10 µM | CONC(=O)c1cccc(-c2ccc3c(NC(=O)C4CC4)n[nH]c3c2)c1 [Compound 11] |
| 0.72 µM | 1.05 µM | 1.9 µM | 2.08 µM | CNC(=O)c1cccc(-c2ccc3c(NC(=O)C4CC4)n[nH]c3c2)c1 [Compound 12] |
| 0.31 µM | 1.06 µM | 0.03 µM | 0.5 µM | CCN1CCN(Cc2ccc(NC(=O)c3ccc(C)c(-c4ccc5c(NC(=O)C6CC6)n[nH]c5c4)c3)cc2C(F)(F)F)CC1 [Compound 13] |
| 1.44 µM | 5.6 µM | 1.05 µM | > 10 µM | CCN1CCN(Cc2ccc(NC(=O)c3ccc(C)c(-c4ccc5c(NC(=O)C6CC6)n[nH]c5c4)c3)cc2)CC1 [Compound 14] |
| 1.29 µM | 8.47 µM | 1.19 µM | > 10 µM | Cc1ccc(C(=O)Nc2cccc(C(F)(F)F)c2)cc1-c1ccc2c(NC(=O)C3CC3)n[nH]c2c1 [Compound 15] |
